ChEMBL document CHEMBL1134040, “Allyl and propargyl substituted penam sulfones as versatile intermediates toward the syntheses of new beta-lactamase inhibitors” (Bioorg Med Chem Lett, 2001)
Converted amounts (≈) assume the structure as drawn.

Key:
[1] = molecular target: Beta-lactamase (Escherichia coli K-12, UniProt P00811); test: In vitro inhibitory concentration against AmpC enzyme
[2] = molecular target: Beta-lactamase TEM (Escherichia coli, UniProt P62593); test: In vitro inhibitory concentration against TEM-1 enzyme
Beta-lactamase TEM, sequence (P62593 whole entry): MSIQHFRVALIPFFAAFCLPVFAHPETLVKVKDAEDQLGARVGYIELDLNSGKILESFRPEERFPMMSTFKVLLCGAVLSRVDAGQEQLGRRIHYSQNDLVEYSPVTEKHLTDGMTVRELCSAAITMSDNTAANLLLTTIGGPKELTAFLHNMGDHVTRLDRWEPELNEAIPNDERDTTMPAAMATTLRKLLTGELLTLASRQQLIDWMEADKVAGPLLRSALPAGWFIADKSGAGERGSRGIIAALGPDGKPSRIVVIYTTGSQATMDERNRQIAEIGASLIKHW

[3] = molecular target: Metallo-beta-lactamase type 2 (Bacteroides fragilis, UniProt P25910); test: In vitro inhibitory concentration against CCRA enzyme
Metallo-beta-lactamase type 2, sequence (P25910 whole entry): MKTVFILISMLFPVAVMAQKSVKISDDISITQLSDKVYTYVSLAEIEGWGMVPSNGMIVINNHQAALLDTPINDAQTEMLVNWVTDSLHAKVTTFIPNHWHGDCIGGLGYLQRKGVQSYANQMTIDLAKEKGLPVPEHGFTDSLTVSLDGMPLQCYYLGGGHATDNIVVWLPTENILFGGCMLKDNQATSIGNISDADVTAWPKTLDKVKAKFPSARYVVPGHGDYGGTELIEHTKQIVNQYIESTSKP

[4] = test system: Escherichia coli; test: In vitro antibacterial activity against AmpC producing Escherichia coli (GC2894); type: functional
[5] = test system: Escherichia coli; test: In vitro antibacterial activity against TEM-1 producing Escherichia coli (GC2206); type: functional

Beta-lactamase, sequence (P00811 whole entry): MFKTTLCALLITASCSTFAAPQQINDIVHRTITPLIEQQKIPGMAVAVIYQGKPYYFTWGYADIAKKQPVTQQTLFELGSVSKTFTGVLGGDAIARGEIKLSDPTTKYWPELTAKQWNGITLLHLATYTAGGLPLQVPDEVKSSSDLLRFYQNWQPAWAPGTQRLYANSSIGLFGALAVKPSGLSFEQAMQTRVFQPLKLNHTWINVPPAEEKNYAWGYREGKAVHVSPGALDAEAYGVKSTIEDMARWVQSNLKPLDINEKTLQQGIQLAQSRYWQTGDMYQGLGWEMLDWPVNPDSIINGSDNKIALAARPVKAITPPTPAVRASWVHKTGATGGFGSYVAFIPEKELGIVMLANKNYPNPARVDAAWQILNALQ

Row | SMILES | IC50 [1] | IC50 [2] | IC50 [3] | MIC [4] | MIC [5]
1 | CC1(C)[C@H](C(=O)O)N2C(=O)[C@@H](Cc3cn(CC(N)Cc4ccc(O)cc4)nn3)[C@H]2S1(=O)=O (some centres undefined) | 6.6 µM | 15 µM | 24 µM |  | 
2 | CC1(C)[C@H](C(=O)O)N2C(=O)C(C/C=C/C#N)[C@@H]2S1(=O)=O (some centres undefined) | > 100 µM | 24 µM | 3.1 µM |  | 
3 | CON(C)C(=O)/C=C/CC1C(=O)N2[C@@H](C(=O)O)C(C)(C)S(=O)(=O)[C@H]12 (some centres undefined) | 17 µM |  | > 100 µM |  | 
4 | CC1(C)[C@H](C(=O)O)N2C(=O)[C@@H](Cc3cn(-c4ccc(N)cc4)nn3)[C@H]2S1(=O)=O | 1.4 µM | 0.6 µM | 1.8 µM | 64 µg/mL (≈ 158 µM) | 32 µg/mL (≈ 78.9 µM)
5 | CC1(C)[C@H](C(=O)O)N2C(=O)[C@@H](Cc3cn(-c4ccccc4)nn3)[C@H]2S1(=O)=O | 3.4 µM | 1 µM | > 100 µM |  | 
6 | COC(=O)/C=C/CC1C(=O)N2[C@@H](C(=O)O)C(C)(C)S(=O)(=O)[C@@H]12 (some centres undefined) | 64 µM | 2.8 µM | 1.4 µM |  | 
7 | CC1(C)[C@H](C(=O)O)N2C(=O)[C@@H](Cc3cn(CC4CCCN4)nn3)[C@H]2S1(=O)=O (some centres undefined) | 5.2 µM | 7.9 µM | 22 µM |  | 
8 | CC1(C)[C@H](C(=O)O)N2C(=O)[C@@H](Cc3cn(-c4ccc(O)cc4)nn3)[C@H]2S1(=O)=O | 2.3 µM | 0.7 µM | 2.1 µM |  | 
9 | CC1(C)[C@H](C(=O)O)N2C(=O)C(C/C=C/C=O)[C@H]2S1(=O)=O (some centres undefined) | 17 µM | 12 µM | > 100 µM |  | 
10 | CC1(C)[C@H](C(=O)O)N2C(=O)[C@@H](Cc3cn(-c4ccc(F)cc4)nn3)[C@H]2S1(=O)=O | 3 µM | 1.6 µM | 4.1 µM |  | 
11 | CC(=O)/C=C/CC1C(=O)N2[C@@H](C(=O)O)C(C)(C)S(=O)(=O)[C@H]12 (some centres undefined) | 100 µM | 8.4 µM | 71 µM |  | 
12 | COC(=O)/C=C/CC1C(=O)N2[C@@H](C(=O)O)C(C)(C)S(=O)(=O)[C@H]12 (some centres undefined) | 29 µM | 8.6 µM | > 100 µM |  | 
13 | CC(=O)/C=C/CC1C(=O)N2[C@@H](C(=O)O)C(C)(C)S(=O)(=O)[C@@H]12 (some centres undefined) | 40 µM | 6.5 µM | 3 µM |  | 
14 | CCN1CCN(C(=O)N[C@@H](C(=O)N[C@@H]2C(=O)N3[C@@H]2SC(C)(C)[C@@H]3C(=O)O)c2ccccc2)C(=O)C1=O [PIPERACILLIN] |  |  |  | > 64 µg/mL | > 64 µg/mL
15 | C[C@]1(Cn2ccnn2)[C@H](C(=O)O)N2C(=O)C[C@H]2S1(=O)=O [TAZOBACTAM] |  |  |  | 16 µg/mL (≈ 53.3 µM) | 2 µg/mL (≈ 6.66 µM)
